Experimental data published in PubChem BioAssay (NCI).
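Following 48 hours of exposure in 96-well plates, responses at five concentrations were used to interpolate endpoints linearly. TGI denotes the concentration required for complete inhibition of growth.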

Tests used:
Assay in all cases: DTP human tumour cell line panel, 48 h
786-0 renal = test system: 786-0 renal
A498 renal = test system: A498 renal
A549 NSCLC = test system: A549 NSCLC
ACHN renal = test system: ACHN renal
CCRF-CEM leukemia = test system: CCRF-CEM leukemia
COLO 205 colon = test system: COLO 205 colon
DLD-1 colon = test system: DLD-1 colon
DMS 114 small cell lung = test system: DMS 114 small cell lung
DMS 273 small cell lung = test system: DMS 273 small cell lung
EKVX NSCLC = test system: EKVX NSCLC
HCC-2998 colon = test system: HCC-2998 colon
HCT-116 colon = test system: HCT-116 colon
HCT-15 colon = test system: HCT-15 colon
HL-60(TB) leukemia = test system: HL-60(TB) leukemia
HOP-18 NSCLC = test system: HOP-18 NSCLC
HOP-62 NSCLC = test system: HOP-62 NSCLC
HOP-92 NSCLC = test system: HOP-92 NSCLC
HT29 colon = test system: HT29 colon
IGROV1 ovarian = test system: IGROV1 ovarian
K-562 leukemia = test system: K-562 leukemia
KM12 colon = test system: KM12 colon
KM20L2 colon = test system: KM20L2 colon
LOX IMVI melanoma = test system: LOX IMVI melanoma
LXFL 529 NSCLC = test system: LXFL 529 NSCLC
M14 melanoma = test system: M14 melanoma
M19-MEL melanoma = test system: M19-MEL melanoma
MALME-3M melanoma = test system: MALME-3M melanoma
MOLT-4 leukemia = test system: MOLT-4 leukemia
NCI-H226 lung = test system: NCI-H226 lung
NCI-H23 lung = test system: NCI-H23 lung
NCI-H460 lung = test system: NCI-H460 lung
OVCAR-3 ovarian = test system: OVCAR-3 ovarian
OVCAR-4 ovarian = test system: OVCAR-4 ovarian
OVCAR-5 ovarian = test system: OVCAR-5 ovarian
OVCAR-8 ovarian = test system: OVCAR-8 ovarian
RPMI-8226 leukemia = test system: RPMI-8226 leukemia
RXF 393 renal = test system: RXF 393 renal
SF-268 CNS = test system: SF-268 CNS
SF-295 CNS = test system: SF-295 CNS
SF-539 CNS = test system: SF-539 CNS
SK-MEL-2 melanoma = test system: SK-MEL-2 melanoma
SK-MEL-28 melanoma = test system: SK-MEL-28 melanoma
SK-MEL-5 melanoma = test system: SK-MEL-5 melanoma
SK-OV-3 ovarian = test system: SK-OV-3 ovarian
SN12C renal = test system: SN12C renal
SNB-19 CNS = test system: SNB-19 CNS
SNB-75 CNS = test system: SNB-75 CNS
SNB-78 CNS = test system: SNB-78 CNS
SR leukemia = test system: SR leukemia
SW-620 colon = test system: SW-620 colon
TK-10 renal = test system: TK-10 renal
U251 CNS = test system: U251 CNS
UACC-257 melanoma = test system: UACC-257 melanoma
UACC-62 melanoma = test system: UACC-62 melanoma
UO-31 renal = test system: UO-31 renal
XF 498 CNS = test system: XF 498 CNS

Q: Which TGI (786-0 renal) does the source give for `N#CCN1C(=O)c2cccc3cc([N+](=O)[O-])cc(c23)C1=O` here?
A: Its TGI is over 100 µM.

Q: And the TGI (A498 renal)?
A: The TGI was over 100 µM.

Q: And the TGI (A549 NSCLC)?
A: Its TGI is over 100 µM.

Q: What about the TGI (ACHN renal) of the same molecule?
A: The TGI was over 100 µM.

Q: And the TGI (CCRF-CEM leukemia)?
A: The TGI was over 100 µM.

Q: And the TGI (COLO 205 colon)?
A: The TGI was over 100 µM.

Q: What about the TGI (DLD-1 colon) of the same molecule?
A: The TGI was over 100 µM.

Q: And the TGI (DMS 114 small cell lung)?
A: The TGI was over 100 µM.

Q: What about the TGI (DMS 273 small cell lung) of the same molecule?
A: The TGI was over 100 µM.

Q: What about the TGI (EKVX NSCLC) of the same molecule?
A: Its TGI is over 100 µM.

Q: What about the TGI (HCC-2998 colon) of the same molecule?
A: The TGI was over 100 µM.

Q: What about the TGI (HCT-116 colon) of the same molecule?
A: The TGI was over 100 µM.

Q: What about the TGI (HCT-15 colon) of the same molecule?
A: Its TGI is over 100 µM.

Q: And the TGI (HL-60(TB) leukemia)?
A: Its TGI is 56.4 µM.

Q: What about the TGI (HOP-18 NSCLC) of the same molecule?
A: Its TGI is over 100 µM.

Q: What about the TGI (HOP-62 NSCLC) of the same molecule?
A: Its TGI is over 100 µM.

Q: And the TGI (HOP-92 NSCLC)?
A: Its TGI is over 100 µM.

Q: What about the TGI (HT29 colon) of the same molecule?
A: Its TGI is over 100 µM.

Q: And the TGI (IGROV1 ovarian)?
A: The TGI was over 100 µM.

Q: And the TGI (K-562 leukemia)?
A: The TGI was over 100 µM.

Q: What about the TGI (KM12 colon) of the same molecule?
A: Its TGI is over 100 µM.

Q: And the TGI (KM20L2 colon)?
A: Its TGI is over 100 µM.

Q: And the TGI (LOX IMVI melanoma)?
A: The TGI was 66.8 µM.

Q: What about the TGI (LXFL 529 NSCLC) of the same molecule?
A: Its TGI is over 100 µM.

Q: And the TGI (M14 melanoma)?
A: The TGI was over 100 µM.

Q: What about the TGI (M19-MEL melanoma) of the same molecule?
A: Its TGI is 44.5 µM.

Q: And the TGI (MALME-3M melanoma)?
A: The TGI was 92.7 µM.

Q: What about the TGI (MOLT-4 leukemia) of the same molecule?
A: Its TGI is over 100 µM.

Q: And the TGI (NCI-H226 lung)?
A: Its TGI is 62.4 µM.

Q: And the TGI (NCI-H23 lung)?
A: Its TGI is over 100 µM.

Q: What about the TGI (NCI-H460 lung) of the same molecule?
A: The TGI was over 100 µM.

Q: What about the TGI (OVCAR-3 ovarian) of the same molecule?
A: The TGI was 88.6 µM.

Q: What about the TGI (OVCAR-4 ovarian) of the same molecule?
A: The TGI was over 100 µM.

Q: And the TGI (OVCAR-5 ovarian)?
A: Its TGI is over 100 µM.

Q: And the TGI (OVCAR-8 ovarian)?
A: Its TGI is over 100 µM.

Q: And the TGI (RPMI-8226 leukemia)?
A: Its TGI is over 100 µM.

Q: And the TGI (RXF 393 renal)?
A: Its TGI is over 100 µM.

Q: What about the TGI (SF-268 CNS) of the same molecule?
A: The TGI was over 100 µM.

Q: And the TGI (SF-295 CNS)?
A: The TGI was over 100 µM.

Q: And the TGI (SF-539 CNS)?
A: Its TGI is over 100 µM.

Q: And the TGI (SK-MEL-2 melanoma)?
A: Its TGI is 22.2 µM.

Q: And the TGI (SK-MEL-28 melanoma)?
A: Its TGI is over 100 µM.

Q: What about the TGI (SK-MEL-5 melanoma) of the same molecule?
A: Its TGI is over 100 µM.

Q: What about the TGI (SK-OV-3 ovarian) of the same molecule?
A: The TGI was over 100 µM.

Q: And the TGI (SN12C renal)?
A: Its TGI is over 100 µM.

Q: And the TGI (SNB-19 CNS)?
A: The TGI was over 100 µM.

Q: And the TGI (SNB-75 CNS)?
A: Its TGI is over 100 µM.

Q: And the TGI (SNB-78 CNS)?
A: The TGI was over 100 µM.

Q: And the TGI (SR leukemia)?
A: Its TGI is 41.8 µM.

Q: And the TGI (SW-620 colon)?
A: Its TGI is over 100 µM.

Q: What about the TGI (TK-10 renal) of the same molecule?
A: Its TGI is 95.6 µM.

Q: What about the TGI (U251 CNS) of the same molecule?
A: Its TGI is over 100 µM.

Q: And the TGI (UACC-257 melanoma)?
A: The TGI was 83.1 µM.

Q: What about the TGI (UACC-62 melanoma) of the same molecule?
A: The TGI was 60.5 µM.

Q: What about the TGI (UO-31 renal) of the same molecule?
A: Its TGI is over 100 µM.

Q: And the TGI (XF 498 CNS)?
A: The TGI was 68.3 µM.
